SMILES strings stand for the structures. Read-outs that look alike come from different tables or passages of the source. Numbered stars: 1 amine (or outer) side, 2 acyl side, 3 side chain; on linkers, the order of the positions; unused ones are H or OH. Bridge positions count the residues as written; N and C are the ends. Square brackets hold non-standard residues; d marks the D form. Peptide text beside a SMILES is read from it. N(2-Aminoethyl)Gly = O=C(CN(CCN[*:3])[*:1])[*:2]; CO = O=C([*:1])[*:2]; Nlys = NCCCCNCC(=O)O

Data set [1] concerns U937 macrophages-VCAM-1 (α4β1, αMβ2, α3β1, α6β1). Briefly: Adhesion of U937 macrophages to immobilized VCAM-1. The class given is cell-based, human. How it is done:
Cell adhesion assay was carried out as previously described[47] with minor modifications. The day before the experiment, each well was coated with VCAM-1 (3 mg/mL) immobilized on the 96-well plate in PBS by overnight incubation at 4 °C. Thereafter, nonspecific binding was blocked by incubating the wells with 1% (w/v) bovine serum albumin (BSA) in Hank’s Balanced Salt Solution (HBSS) containing 5 mM MgCl2 at room temperature for 1 h before use. The cells were labeled by incubation with 12.5 μM 5-chloromethylfluorescein diacetate (CMFDA) in HBSS without 1% BSA at 37 °C for 30 min. The labeled cells were then centrifuged at 1000 rpm and washed twice with HBSS containing 1% BSA to remove excess CMFDA. Labeled cells (about 1 × 10^5 cells/well) were plated on each well in the presence or absence of visabrons and incubated at 37 °C for 60 min. Unbound cells were removed by washing the wells three times with 1% (w/v) BSA in HBSS, and bound cells were lysed by the addition of 0.5% Triton X-100 (diluted in DDW). The fluorescence in each well was quantified with a SPECTRAFluor Plus plate reader (Tecan), at λex = 485 nm and λem = 530 nm. To determine the number of adhered cells from the fluorescence values, a standard curve was generated by serial dilution of known numbers of CMFDA-labeled cells.

Data set [2] is described as follows: Single-dose toxicity: blood cell counting and biochemistry analyses. The class given is in vivo, C57BL/6 male mice.
Data set [3] deals with SafetyScreen44 targets. Briefly: SafetyScreen44 off-target panel (44 binding, enzymatic and transporter assays). The conditions noted are these: 1 mM; threshold of 40% for binding competition; Figure 5. How it is done:
Screening of potentially significant off-target effects to binding and enzyme targets was performed via SafetyScreen44 offered by Eurofins Cerep-Panlabs. Visabron c (4–4) was tested at 1 and 0.1 mM. Compound binding was calculated as the percentage of inhibition of the binding of a radioactively labeled ligand specific for each target. The compound enzyme inhibitory effect was calculated as the percentage of inhibition of control enzyme activity. Results showing inhibition higher than 40% were considered to represent significant effects of the tested compound. Results showing inhibition lower than 25% as obtained with 0.1 mM Visabron c (4–4) were not considered significant and were mostly attributable to the variability of the signal around the control level. In each experiment, the respective reference compound was tested concurrently with visabron c (4–4), and the data were compared with historical values determined at Eurofins. The experiment was statistically accepted in accordance with the Eurofins validation standard operating procedure.

[4] abbreviates: U937 treated with PMA (10 ng/mL) for 24 h, read-out: IC50 U937 macrophages-VCAM-1 PMA.
Where [5] appears, read: untreated U937, read-out: IC50 U937 macrophages-VCAM-1 control.
Setting [6] is: blood 24 hours after i.v. 500 mg/kg, n=5.

Usually IC50 stands for the concentration that inhibits the measured activity by half. `CSCC[C@@H]1NC(=O)[C@H]([C@@H](C)O)NC(=O)CN(C(=O)[C@@H](N)CCCCN)CCNC(=O)NCCN(CC(=O)N[C@@H](CC(C)C)C(N)=O)C(=O)[C@H](CC(=O)O)NC(=O)[C@H](CC(C)C)NC1=O` [visabron c (2–2)] (H-K[N(2-Aminoethyl)Gly]TMLD[N(2-Aminoethyl)Gly]L-NH2; linker 2-7 via CO): the half-maximal inhibitory concentration (IC50) was found to be 16 µM in data set [1] (setting [4]) and 53 µM in data set [1] (setting [5]).
Take `CSCC[C@@H]1NC(=O)[C@H]([C@@H](C)O)NC(=O)CN(C(=O)[C@@H](N)CCCCN)CCCCNC(=O)NCCCCN(CC(=O)N[C@@H](CC(C)C)C(N)=O)C(=O)[C@H](CC(=O)O)NC(=O)[C@H](CC(C)C)NC1=O` [visabron c (4–4)] (H-K[Nlys]TMLD[Nlys]L-NH2; linker 2-7 via CO): the “Acute tolerability, single dose” value in data set [2] (24 h after i.v. injection, C57BL/6 male mice) is 500 mg/kg. Further, the “Blood count and electrolytes vs control mice” value in data set [2] (24 hours from i.v. injection, dose printed 250 mg/kg in this block) is reported as “No significant differences”. In data set [2] (setting [6]), the ALP is reported as 84±7 U/L, the ALT stood at 41±4 U/L, the AST stood at 92±11 U/L and the Albumin came out at 2.8±0.2 gr/dL. Also, in data set [2] (setting [6]), the BUN was 14 ± 3.2 mg/dL, the Calcium was 9.8 ± 1.2 mg/dL, the Chloride was 105 ± 9.2 mmol/L and the Cholesterol stood at 105 ± 8.6 mg/dL. In data set [2] (setting [6]), the Creatinine was found to be 0.3 ± 0.07 mg/dL, the Glucose is 279 ± 31 mg/dL, the HCT came out at 45±2.5% and the HGB is 14.8 ± 0.5 g/dL. In data set [2] (setting [6]), the MCH worked out at 14.8 ± 0.6 pg, the MCHC came out at 29 ± 1.3 g/dL, the MCV turned out to be 48 ± 2.5 fL and the MPV worked out at 5 ± 0.9 fL. Moreover, in data set [2] (setting [6]), the RBC came out at 9.0±0.9 m/ µL, the RDW came to 17.1±0.4% and the WBC is listed as 7.9±0.8 k/µL. The IC50 in data set [1] (setting [4]) worked out at 10 µM. For the same compound, in data set [1] (setting [5]), the IC50 was found to be 11 µM. The “Interaction with the majority of the physiological targets” value in data set [3] is “did not interact”.

These data come from publication PMC8717366, “Synthesis and Pharmacological Characterization of Visabron, a Backbone Cyclic Peptide Dual Antagonist of α4β1 (VLA-4)/α9β1 Integrin for Therapy of Multiple Sclerosis” (JACS Au, 2021).
